“And” between values parts separate entries of the source, which are not always exact repeats. Identical values can stand only once. “Also recorded” adds a separate entry of the source.
Test system: endogenous tau in dSH-SY5Y cells
Assay: Western blot of whole lysate and Triton X-100 sequential extraction of endogenous tau
Type: cell-based, human
Settings: 24 h
Procedure: Cells were detached from the coverslip by incubation in 0.25% trypsin-EDTA (Gibco™) and then mixed with 5 ml culture media. The cells were harvested by centrifugation at 500×g for 5 minutes and the supernatant was discarded. The cell pellet was resuspended in ice-cold PBS and centrifuged at 500×g at 4° C. Cells were lysed in 1% Triton lysis buffer (1% Triton X-100 (v/v), 150 mM NaCl and 50 mM Tris-HCl, pH 7.6) containing Halt™ protease inhibitors (Thermo Scientific) and phosphatase inhibitors (Thermo Scientific) for 15 minutes on ice. The samples were centrifuged at 16,000×g for 30 minutes at 4° C., and the supernatant was collected (Triton-soluble fraction). The pellet was resuspended in SDS lysis buffer (1% SDS (w/v), 150 mM NaCl and 50 mM Tris-HCl, pH 7.6) containing protease and phosphatase inhibitors. The samples were centrifuged at 16,000×g for 30 minutes at room temperature and the supernatant was collected (Triton-insoluble fraction). Protein concentration in the Triton-soluble fractions were determined using the Pierce™ BCA Protein Assay Kit (Thermo Scientific) according to the manufacturer's instructions.
For cell lysates, Triton-soluble protein (20 μg) and an equal volume of Triton-insoluble protein were each mixed with Læmmli sample buffer (4×) (Bio-Rad Laboratories) containing 5% (v/v) […] and heated at 95° C. for 5 minutes. For recombinant protein, 3 μg was mixed with sample buffer without reducing agent or boiling. All samples were centrifuged for five minutes at 1000×g and samples were loaded onto 4-20% Mini-PROTEAN® precast gels (Bio-Rad Laboratories) and run at 120 V for 1 h in Tris-glycine running buffer (25 mM Tris, 192 mM glycine, pH 8.3), or until the sample buffer reached the end of the gel. For Coomassie staining, the gel was washed three times in double distilled water for five minutes and stained with Imperial™ protein stain (Thermo Scientific) for 1 h and then destained overnight in double distilled water. The stained gel was scanned using an HP Photosmart C5280 scanner. For western blotting, the separated proteins on the gel were transferred to nitrocellulose membrane (0.45 μm) at 200 mA for 90 minutes. The membranes were blocked in 5% (w/v) bovine serum albumin (BSA) in Tris-buffered saline (50 mM Tris-HCl, pH7.4, 150 mM NaCl) containing 0.1% (v/v) Tween-20 (TBS-T) for 1 h rocking at room temperature. Membranes were incubated with primary antibodies diluted in 5% BSA in TBS-T overnight at 4° C. The following primary antibodies and dilutions were used; Anti-Tau (polyclonal, total tau) (Thermo Scientific) (1:2500), AT180 (anti-pT231) (Thermo Scientific) (1:1000), AT8 (anti-pS202-T205) (1:1000) (Thermo Scientific), anti-GAPDH (1:5000) (Abcam). […] Immunoreactive protein bands were detected using ECL substrate (Clarity™, Bio-Rad) and X-ray films were scanned using an HP Photosmart C5280 scanner. FIJI was used to quantify the bands in arbitrary densitometry units. The density of bands corresponding to full-length tau (50-70 kDa) were determined and normalised against amount of GAPDH. […] For the quantification of Triton-insoluble and soluble protein, the proportion of tau in the insoluble and soluble fraction was calculated using the equations insoluble/(soluble+insoluble) or soluble/(soluble+insoluble), respectively and expressed as a percentage of the respective soluble or insoluble control value. […]

[1] = whole lysate (RIPA), 1 μM soluble dGAE

dGAE: recombinant truncated tau, 95 residues fragment of Tau (2N4R), Ile-297 to Glu-391, SEQ ID NO: 4
proportion of AT180 tau in Triton-X 100 insoluble fraction, percentage of buffer-treated controls (soluble dGAE, buffer 100±0): 139.4±14.54% and 139.4±14.5%
proportion of AT180 tau in Triton-X 100 soluble fraction, percentage of buffer-treated controls (soluble dGAE, buffer 100±0): 82.98±5.48% and 83.0±5.5%
AT8 immunoreactivity vs buffer-treated control (western blot) [1]: no significant difference; also recorded: marginal increases
AT180 immunoreactivity vs buffer-treated control (western blot) [1]: no significant difference; also recorded: marginal increases
total tau immunoreactivity vs buffer-treated control (western blot) [1]: no significant difference; also recorded: no change

— US20230266303A1, “SYSTEM” (GTINVENT LIMITED, priority 2020, published 2023)
